The values below come from PubChem BioAssay AID248 (DTP/NCI, 2004).

Values joined by “and” are separate entries in the source; they are usually repeats but may differ in a detail not shown here. Identical values can stand only once. Inconclusive results and toxic doses are left out.

The subject of this test is L1210 leukemia ip in BDF1 mice, survival T/C. Description: NCI In Vivo Anticancer Drug Screen. Data for tumor model L1210 Leukemia (intraperitoneal) in B6D2F1 (BDF1) mice. The settings on record: higher = longer survival. The method in brief: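 Tumor was transplanted into mice, which were then dosed with test compound or vehicle alone. Survival was recorded for each group, and the treated figure was expressed relative to the control figure.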

[1] abbreviates: endpoint: mean survival time, dose: 100.0 mg/kg/injection, schedule: Q01DX001 (ip), vehicle: carboxymethylcellulose (CMC).
Setting [2] is: endpoint: mean survival time, dose: 200.0 mg/kg/injection, schedule: Q01DX001 (ip), vehicle: carboxymethylcellulose (CMC).
[3] abbreviates: endpoint: mean survival time, dose: 400.0 mg/kg/injection, schedule: Q01DX001 (ip), vehicle: carboxymethylcellulose (CMC).

Turning to `CN(N=O)C(N)=O`, the T/C (endpoint: mean survival time, dose: 0.35 mg/kg/injection, schedule: Q01DX Z (sc), vehicle: steriod suspending solution) was 103 % of control; the T/C (endpoint: mean survival time, dose: 0.55 mg/kg/injection, schedule: Q01DX Z (sc), vehicle: steriod suspending solution) is 97 % of control; the T/C (endpoint: mean survival time, dose: 0.83 mg/kg/injection, schedule: Q01DX Z (sc), vehicle: steriod suspending solution) is 100 % of control; the T/C (endpoint: mean survival time, dose: 0.92 mg/kg/injection, schedule: Q01DX Z (oral), vehicle: steriod suspending solution) was 98 % of control; the T/C (endpoint: mean survival time, dose: 1.25 mg/kg/injection, schedule: Q01DX Z (sc), vehicle: steriod suspending solution) was 103 % of control; the T/C (endpoint: mean survival time, dose: 1.38 mg/kg/injection, schedule: Q01DX Z (oral), vehicle: steriod suspending solution) is 106 % of control. Further, the T/C by setting is: (endpoint: mean survival time, dose: 2.08 mg/kg/injection, schedule: Q01DX Z (oral), vehicle: steriod suspending solution) 107 % of control; (endpoint: mean survival time, dose: 2.25 mg/kg/injection, schedule: Q01DX Z (ip), vehicle: carboxymethylcellulose (CMC)) 112 % of control; (endpoint: mean survival time, dose: 2.5 mg/kg/injection, schedule: Q01DX Z (sc), vehicle: steriod suspending solution) 156 % of control; (endpoint: mean survival time, dose: 3.12 mg/kg/injection, schedule: Q01DX Z (oral), vehicle: steriod suspending solution) 114 % of control; (endpoint: mean survival time, dose: 3.6 mg/kg/injection, schedule: Q01DX Z (ip), vehicle: carboxymethylcellulose (CMC)) 109 % of control; (endpoint: mean survival time, dose: 4.5 mg/kg/injection, schedule: Q01DX Z (ip), vehicle: carboxymethylcellulose (CMC)) 109 % of control and 120 % of control. Further, the T/C is 118 % of control and 123 % of control (endpoint: mean survival time, dose: 5.0 mg/kg/injection, schedule: Q01DX009 (ip), vehicle: saline); 160 % of control (endpoint: mean survival time, dose: 5.0 mg/kg/injection, schedule: Q01DX Z (sc), vehicle: steriod suspending solution); 121 % of control (endpoint: mean survival time, dose: 5.7 mg/kg/injection, schedule: Q02DX010 (ip), vehicle: carboxymethylcellulose (CMC)); 119 % of control (endpoint: mean survival time, dose: 6.0 mg/kg/injection, schedule: Q01DX Z (ip), vehicle: carboxymethylcellulose (CMC)); 106 % of control and 113 % of control (endpoint: mean survival time, dose: 6.2 mg/kg/injection, schedule: Q01DX Z (sc), vehicle: saline); 101 % of control (endpoint: mean survival time, dose: 6.25 mg/kg/injection, schedule: Q01DX Z (oral), vehicle: steriod suspending solution). Besides, the T/C runs as follows: (endpoint: mean survival time, dose: 6.8 mg/kg/injection, schedule: Q02DX010 (ip), vehicle: saline) 122 % of control; (endpoint: mean survival time, dose: 8.0 mg/kg/injection, schedule: Q01DX Z (ip), vehicle: saline) 162 % of control; (endpoint: mean survival time, dose: 8.0 mg/kg/injection, schedule: Q01DX Z (sc), vehicle: other) 122 % of control; (endpoint: mean survival time, dose: 8.0 mg/kg/injection, schedule: Q01DX Z (sc), vehicle: saline) 115 % of control; (endpoint: mean survival time, dose: 9.0 mg/kg/injection, schedule: Q01DX Z (sc), vehicle: saline) 103 % of control; (endpoint: mean survival time, dose: 9.0 mg/kg/injection, schedule: Q02DX010 (ip), vehicle: carboxymethylcellulose (CMC)) 122 % of control. Moreover, the T/C is, setting by setting: (endpoint: mean survival time, dose: 10.0 mg/kg/injection, schedule: Q01DX Z (sc), vehicle: steriod suspending solution) 156 % of control; (endpoint: mean survival time, dose: 12.0 mg/kg/injection, schedule: Q01DX Z (ip), vehicle: saline) 184 % of control; (endpoint: mean survival time, dose: 12.5 mg/kg/injection, schedule: Q01DX Z (oral), vehicle: steriod suspending solution) 157 % of control; (endpoint: mean survival time, dose: 13.0 mg/kg/injection, schedule: Q02DX010 (ip), vehicle: saline) 154 % of control; (endpoint: mean survival time, dose: 18.0 mg/kg/injection, schedule: Q01DX001 (ip), vehicle: saline) 124 % of control; (endpoint: mean survival time, dose: 18.0 mg/kg/injection, schedule: Q01DX Z (ip), vehicle: carboxymethylcellulose (CMC)) 177 % of control. Further, the T/C runs as follows: (endpoint: mean survival time, dose: 18.0 mg/kg/injection, schedule: Q01DX Z (ip), vehicle: saline) 187 % of control; (endpoint: mean survival time, dose: 18.0 mg/kg/injection, schedule: Q01DX Z (sc), vehicle: other) 188 % of control; (endpoint: mean survival time, dose: 20.0 mg/kg/injection, schedule: Q01DX009 (ip), vehicle: saline) 158 % of control and 174 % of control; (endpoint: mean survival time, dose: 20.0 mg/kg/injection, schedule: Q02DX010 (ip), vehicle: other) 159 % of control; (endpoint: mean survival time, dose: 20.0 mg/kg/injection, schedule: Q02DX010 (ip), vehicle: saline) 160 % of control and 166 % of control; (endpoint: mean survival time, dose: 22.5 mg/kg/injection, schedule: Q02DX010 (ip), vehicle: saline) 152 % of control. The T/C (endpoint: mean survival time, dose: 24.0 mg/kg/injection, schedule: Q02DX010 (ip), vehicle: saline) is 167 % of control; the T/C (endpoint: mean survival time, dose: 24.8 mg/kg/injection, schedule: Q01DX Z (oral), vehicle: saline) was 112 % of control; the T/C (endpoint: mean survival time, dose: 27.0 mg/kg/injection, schedule: Q01DX Z (ip), vehicle: saline) was 115 % of control; the T/C (endpoint: mean survival time, dose: 30.0 mg/kg/injection, schedule: Q02DX010 (ip), vehicle: other) was 208 % of control; the T/C (endpoint: mean survival time, dose: 30.0 mg/kg/injection, schedule: Q02DX010 (ip), vehicle: saline) is 154 % of control and 177 % of control; the T/C (endpoint: mean survival time, dose: 36.0 mg/kg/injection, schedule: Q01DX Z (ip), vehicle: carboxymethylcellulose (CMC)) is 122 % of control. The T/C by setting is: (endpoint: mean survival time, dose: 36.0 mg/kg/injection, schedule: Q02DX010 (ip), vehicle: saline) 211 % of control; (endpoint: mean survival time, dose: 40.0 mg/kg/injection, schedule: Q01DX009 (ip), vehicle: saline) 118 % of control and 88 % of control; (endpoint: mean survival time, dose: 40.0 mg/kg/injection, schedule: Q01DX Z (ip), vehicle: saline) 103 % of control; (endpoint: mean survival time, dose: 45.0 mg/kg/injection, schedule: Q01DX Z (ip), vehicle: carboxymethylcellulose (CMC)) 94 % of control; (endpoint: mean survival time, dose: 45.0 mg/kg/injection, schedule: Q02DX010 (ip), vehicle: saline) 108 % of control; (endpoint: mean survival time, dose: 56.0 mg/kg/injection, schedule: Q01DX Z (oral), vehicle: saline) 113 % of control and 114 % of control. Moreover, the T/C (endpoint: mean survival time, dose: 67.0 mg/kg/injection, schedule: Q02DX010 (ip), vehicle: other) is 101 % of control; the T/C (endpoint: mean survival time, dose: 67.0 mg/kg/injection, schedule: Q02DX010 (ip), vehicle: saline) is 74 % of control; the T/C (endpoint: mean survival time, dose: 72.0 mg/kg/injection, schedule: Q01DX001 (ip), vehicle: saline) is 188 % of control; the T/C (endpoint: mean survival time, dose: 80.0 mg/kg/injection, schedule: Q01DX Z (sc), vehicle: steriod suspending solution) was 101 % of control; the T/C (endpoint: mean survival time, dose: 84.0 mg/kg/injection, schedule: Q01DX Z (oral), vehicle: saline) is 101 % of control; the T/C (endpoint: mean survival time, dose: 160.0 mg/kg/injection, schedule: Q01DX Z (sc), vehicle: steriod suspending solution) is 88 % of control. For the same compound, the T/C runs as follows: (endpoint: median survival time, dose: 0.75 mg/kg/injection, schedule: Q01DX009 (ip), vehicle: saline) 95 % of control; (endpoint: median survival time, dose: 1.5 mg/kg/injection, schedule: Q01DX009 (ip), vehicle: saline) 100 % of control and 110 % of control; (endpoint: median survival time, dose: 3.0 mg/kg/injection, schedule: Q01DX009 (ip), vehicle: saline) 100 % of control and 115 % of control; (endpoint: median survival time, dose: 5.0 mg/kg/injection, schedule: Q01DX009 (ip), vehicle: saline) 121 % of control; (endpoint: median survival time, dose: 6.3 mg/kg/injection, schedule: Q01DX017 (ip), vehicle: saline) 122 % of control; (endpoint: median survival time, dose: 10.0 mg/kg/injection, schedule: Q01DX009 (ip), vehicle: saline) 155 % of control. Further, the T/C (endpoint: median survival time, dose: 12.0 mg/kg/injection, schedule: Q01DX009 (ip), vehicle: saline) is 172 % of control; the T/C (endpoint: median survival time, dose: 12.5 mg/kg/injection, schedule: Q01DX017 (ip), vehicle: saline) is 183 % of control and 194 % of control; the T/C (endpoint: median survival time, dose: 20.0 mg/kg/injection, schedule: Q01DX009 (ip), vehicle: saline) was 233 % of control and 242 % of control; the T/C (endpoint: median survival time, dose: 24.0 mg/kg/injection, schedule: Q01DX009 (ip), vehicle: saline) was 190 % of control; the T/C (endpoint: median survival time, dose: 40.0 mg/kg/injection, schedule: Q01DX009 (ip), vehicle: saline) is 100 % of control and 121 % of control.
For the compound `CCCCC(=O)N/N=C\c1cc([N+](=O)[O-])ccc1O`, the T/C is 91 % of control under setting [1], 98 % of control under setting [2] and 87 % of control under setting [3].
As for `CC1(CO)CCCC2(C)C3=C(CCCC3)CCC12` (stereo unspecified), the T/C reads like this: (endpoint: mean survival time, dose: 5.0 mg/kg/injection, schedule: Q01DX001 (ip), vehicle: other) 102 % of control; (endpoint: mean survival time, dose: 10.0 mg/kg/injection, schedule: Q01DX001 (ip), vehicle: other) 96 % of control; (endpoint: mean survival time, dose: 20.0 mg/kg/injection, schedule: Q01DX001 (ip), vehicle: other) 100 % of control; (endpoint: mean survival time, dose: 40.0 mg/kg/injection, schedule: Q01DX001 (ip), vehicle: other) 98 % of control; (endpoint: mean survival time, dose: 80.0 mg/kg/injection, schedule: Q01DX001 (ip), vehicle: other) 98 % of control.
For the compound `SCc1ccc(Br)cc1`, the T/C is 104 % of control under setting [1], 98 % of control under setting [2] and 104 % of control under setting [3].
